# Assays:
# [1] = tested on: mouse fibrosarcoma (R3) cells; assay: Experimental metastasis of R3 cells treated ex vivo, lung nodules in C3H mice (4.1); details: for Formation of lung colonies / nodules: R3 cells treated with 0.2 μM + Lipofectin for 4 hr before i.v. injection into C3H mice
# Procedure: • 4.1 Experimental metastasis of mouse fibrosarcoma (R3) cells treated with different antisense oligonucleotides in a syngenetic model was estimated as follows. Aliquots of R3 cell suspension were seeded into 100 mm tissue culture dishes at a density of 2×10^6 and incubated overnight at 37° C. in α-MEM medium supplemented with 10% FBS. Cells were washed once in 10 ml of PBS and treated with 0.2 μM of SEQ ID NO: 1 in the presence of cationic lipid (Lipofectin reagent, final concentration, 10 μg/ml, Gibco BRL) for 4 hr. Cells were treated with either saline alone (C) or lipofectin alone (RE) as controls. Oligonucleotide was removed by washing the cells once with PBS and the cells were trypsinized. Cells were then collected by centrifugation, and approximately 1×10^5 cells suspended in 0.2 ml of PBS were injected into the tail veins of 10 week-old C3H female mice. Estimates of the number of lung tumours were made 20 days later, after excised lungs from individual mice were stained with picric acid dye solution (75% picric acid, 20% formaldehyde, 5% glacial acetic acid). Bars represent mean number of tumour nodules in lungs obtained from 4 to 5 animals per experimental group. […] Aliquots of C8161 cell suspension were seeded into 100 mm tissue culture dishes at a density of 2×10^6 and incubated overnight at 37° C. in α-MEM medium supplemented with 10% FBS. Cells were washed once in 10 ml of PBS and treated with 0.2 μM of SEQ ID NO: 1 in the presence of cationic lipid (Lipofectin reagent, final concentration, 10 μg/ml, Gibco BRL) for 4 hr. Cells were treated with lipofectin alone (CONTROL) as a control. SEQ ID NO:1 was removed by washing the cells once with PBS and the cells were trypsinized. Cells were then collected by centrifugation, and approximately 1×10^5 cells suspended in 0.2 ml of PBS were injected into the tail veins of 6-8 week-old CD-1 athymic female nude mice. Estimates of the number of lung tumours were made 4 weeks later, after excised lungs from individual mice were stained with picric acid dye solution (75% picric acid, 20% formaldehyde, 5% glacial acetic acid). […]
# [2] = tested on: DU145 human prostatic cancer cells; assay: DU145 prostatic tumour xenograft in SCID mice, combination with mitoxantrone (1.5); assay type: in vivo, human cells in mice
# Procedure: After 52 days the mice were sacrificed and the tumours weighed. […] In both experiments, PC-3 human prostatic cancer cells (1×10^7 cells in 100 μl of PBS) were subcutaneously injected into the right flank of 6-7 weeks old male SCID mice. After the size of tumour reached an approximate volume of 50 mm^3, 14 days post tumour cell injection, SEQ ID NO: 1 was administered by bolus infusion into the tail vein every other day at 10 mg/kg 18 times (FIG. 4A) or 17 times (FIG. 4B), respectively. Control animals received saline alone for the same period. Antitumour effect of SEQ ID NO:1 was further compared to that of mitoxantrone (novantrone) alone or in combination. Mitoxantrone was administered intravenously once at the beginning of the treatments at a dose of 2 mg/kg (FIG. 4A) or once a week for four weeks at a reduced dose of 0.8 mg/kg (FIG. 4B). All treatments were stopped at day 50 (FIG. 4A) or 48 (FIG. 4B), respectively. A day after the last treatment, tumours were excised from the animals and their weights were measured. […] In both experiments, DU145 human prostatic cancer cells (1×10^7 cells in 100 μl of PBS) were subcutaneously injected into the right flank of 6-7 weeks old male SCID mice. After the size of tumour reached an approximate volume of 50 mm^3, 13 (FIG. 5A) or 11 (FIG. 5B) days post tumour cell injection, SEQ ID NO:1 was administered by bolus infusion into the tail vein every other day at 10 mg/kg 15 times (FIG. 5A) or 14 times (FIG. 5B), respectively. Control animals received saline alone for the same period. Antitumour effect of SEQ ID NO:1 was further compared to that of mitoxantrone (novantrone) alone or in combination. Mitoxantrone was administered intravenously once at the beginning of the treatments at a dose of 2 mg/kg (FIG. 5A) or once a week for four weeks at a reduced dose of 0.8 mg/kg (FIG. 5B). All treatments were stopped at day 42 (FIG. 5A) or 38 (FIG. 5B), respectively. A day after the last treatment, tumours were excised from the animals and their weights were measured.
# [3] = Pharmacokinetics in the monkey, 21 day continuous intravenous infusion; assay type: in vivo
# Procedure: The toxicokinetics and tissue distribution of SEQ ID NO:1 (and related oligonucleotide metabolites obtained from exonuclease-mediated chain shortening) were determined in rats and monkeys. In addition to investigating the pharmacokinetics and tissue distribution of SEQ ID NO:1, the purpose of the studies was to correlate adverse effects in the animal studies to the concentrations of SEQ ID NO:1 (and metabolites) in tissue and blood. A capillary electrophoresis (CE) method was used to measure the concentrations of SEQ ID NO:1 (and metabolites) in plasma and tissues.
# SEQ ID NO:1 was administered to monkeys by continuous intravenous infusion for 21 days followed by a 21-day recovery period. Twenty-eight monkeys were administered one of the following dose levels; vehicle control, 2, 10, or 50 mg/kg/day (24.6, 123, and 615 mg/m^2/day). Toxicokinetic samples were collected prior to the initiation of infusion, approximately 8, 24, 48, and 96 hours following the start of infusion, and on Day 20 prior to the change in dose-syringes.
# [4] = tested on: SIHA human cervical cancer cells; assay: SIHA cervical tumour growth in SCID mice (3.10); assay type: in vivo, human cells in mice
# Procedure: Treatments lasted for 14 days thereafter. Antitumour activities were estimated by the inhibition of tumour volume, which was measured with a caliper on four different occasions over the treatment period. Each point represents mean tumour volume calculated from 5 animals per experimental group. […] Control animals (control) received saline alone for the same period. At the end of the treatments, the animals were sacrificed, tumours were excised and their weights were measured. Each bar represents mean tumour weight calculated from 6 animals per experimental group. […] Treatments lasted for 24 days thereafter. Antitumour activities were estimated by the inhibition of tumour volume, which was measured with a caliper at two-day intervals over the treatment period. Each point represents mean tumour volume calculated from 4 animals per experimental group. […] Treatments lasted for 24 days thereafter. Antitumour activities were estimated by the inhibition of tumour volume, which was measured with a caliper at two-day intervals over the treatment period. Each point represents mean tumour volume calculated from 4 animals per experimental group. […] Each point represents mean tumour volume calculated from 5 animals per experimental group. […] Antitumour activities were estimated by the inhibition of tumour volume, which was measured with a caliper on four different occasions over 16-day period. Each point represents mean tumour volume calculated from 5 animals per experimental group. […] Antitumour activities were estimated by the inhibition of tumour volume, which was measured with a caliper at two-day intervals over the treatment period. Each point represents mean tumour volume calculated from 5 animals per experimental group. […] Antitumour activities were estimated by the inhibition of tumour volume, which was measured with a caliper at various time intervals over the span of 30 days. Each point represents mean tumour volume calculated from 6 animals per experimental group. […] Antitumour activities were estimated by the inhibition of tumour volume, which was measured with a caliper. […]
# [5] = 10 mg/kg/day continuous i.v. infusion 21 days
# [6] = 50 mg/kg/day continuous i.v. infusion 21 days
substance,measurement,setting,value
"5′-GGCTAAATCGCTCCACCAAG-3′ (all phosphorothioate, sugars by position and methylation of C not given here) [SEQ ID NO: 1, fully phosphorothioated antisense oligonucleotide that hybridizes to the coding region of R2 mRNA]",Decrease in the number of tumour metastases to lungs,[1]; Mouse Fibrosarcoma (ex vivo),Decrease by approximately 65% in the number
same,Formation of lung colonies / nodules,[1],significantly reduced the formation of lung colonies
same,Formation of lung colonies / nodules,[1]; listed as SEQ ID NO:1,significantly reduces the extent of lung nodule formation
same,Tumour weight as % of saline control,"[2]; DU145 (prostatic), SCID, second of two printed values (two independent experiments), SEQ ID NO:1 10 mg/kg i.v. every other day, mitoxantrone i.v.",41%
same,"Antitumour effect (tumour weight, FIG. 5A)","[2]; DU145, SCID mice, SEQ ID NO:1 10 mg/kg i.v. every other day 15 times, mitoxantrone 2 mg/kg i.v. once",significant delay of tumour growth compared to saline control
same,Plasma concentrations,[3]; 2 mg/kg dose group,could not be detected
same,median Tmax,[3]; 10 mg/kg dose group,20 days
same,Cl,[3]; [5],3.47 ± 0.867 mL/min/kg
same,Cmax,[3]; [5],2.94 µg/mL
same,Css,[3]; [5],2.10 ± 0.48 µg/mL
same,Tmax (mean),[3]; [5],13.5 days
same,median Tmax,[3]; 50 mg/kg dose group,1 days
same,Cl,[3]; [6],2.17 ± 0.267 mL/min/kg
same,Cmax,[3]; [6],20.3 µg/mL
same,Css,[3]; [6],16.2 ± 2.2 µg/mL
same,Tmax (mean),[3]; [6],7.12 days
same,Time to steady state plasma concentration,[3]; continuous i.v. infusion,steady state by eight hours after dosing
same,Inhibition of tumour weight,[4]; Human Cervical Carcinoma^2,~90%
same,Inhibition of tumour size,"[4]; Human Cervical Carcinoma^2 in SCID mice, Day 22 after tumour implantation",Inhibition of tumour size by approximately 90%
same,"Inhibitory effect on tumour growth (tumour volume and weight, FIG. 22)","[4]; SIHA, SCID mice, 10 mg/kg i.v. every other day, 16 days",strong inhibitory effects on the growth of human cervical carcinoma

# From patent US7968526B2, “Antisense oligonucleotides directed to ribonucleotide reductase R2 and uses thereof in the treatment of cancer” (Lorus Therapeutics Inc., priority 2003, dated 2011)
